According to patent publication US20220362249A1, “METHODS FOR TREATING […]” (PTC Therapeutics MP, Inc., priority 2019, published 2022):
“And” between values parts separate entries of the source, which are not always exact repeats. Identical values can stand only once.

Assays:
[1] = Adverse events in patients with PKU on PTC923 or sapropterin dihydrochloride; format: in vivo, human; settings: for Headache (all-cause AE): transient
Excerpt: PTC923 safety was monitored and adverse events (AEs) were coded using the Medical Dictionary for Regulatory Activities (MedDRA®) version 21.0. Treatment-emergent adverse events (TEAEs) were defined as AE that began on or after first dose of study drug. A TEAE was associated with the study treatment currently being received, or the last study treatment before its onset. A treatment-related TEAE was, in the judgment of the investigator possibly, probably or definitely related to treatment. A serious AE (SAE) was defined as resulting in death, life-threatening AE, inpatient hospitalization or prolongation of existing hospitalization, a persistent or significant disability/incapacity or a substantial disruption of the ability to conduct normal life functions, or a congenital anomaly/birth defect.

blood Phe = assay: Reduction of blood Phe in patients with PKU, randomized crossover of PTC923 vs sapropterin dihydrochloride; format: in vivo, human; settings: for Proportion of patients achieving blood Phe <360 μmol/L: n of 24; for Mean (SD) blood Phe, At baseline: Day 1 pre-dose; for Least squares mean (SE) change from baseline in blood Phe / Mean (SD) blood Phe, Change / Mean (SD) blood Phe, On treatment: 7 days; for Mean (SD) blood Phe, On treatment: mean of days 3, 5 and 7
Protocol: Following screening for eligibility, a 7-day run-in period commenced. Patients then received 7 days of once-daily oral treatment with either PTC923 20 mg/kg/day (“low dose”), or PTC923 60 mg/kg/day or sapropterin dihydrochloride, in a random order. PTC923 (formerly CNSA-001) is oral sepiapterin. Each patient was randomized to one of six treatment sequences (FIG. 2). The randomization in six different treatment sequences was intended to minimize carry over effect, treatment period effect, patient fatigue, and natural fluctuations in blood Phe levels. A 7-day washout period separated each active treatment period. Patients were asked to maintain their usual pre-study diet, including consumption of amino acid mixtures if prescribed, and were monitored throughout the study by a metabolic dietician.
Blood samples for measurement of Phe were taken on 7, 5, 3, and 1 days before randomization. During treatment periods, blood was taken pre-dose for day 1 and post-dose for days 3, 5 and 7. During the washout periods, blood was taken for measurement of Phe on days 1, 3, 5, and 7. All samples were taken under fasting conditions or no earlier than 3 hours following a meal and at the same time of day. Blood Phe was measured using a validated LC-MS-MS technique of dried blood sampling via Volumetric Absorptive Microsampling (VAMS®) using Mitra® 4-sampler clamshells, at a central bioanalytical laboratory (Agilex Biolabs Pty Ltd).
The main objective of the study was to assess the efficacy of PTC923 measured as the mean blood Phe change from baseline. The efficacy population consisted of all patients who were randomized and had blood Phe measurements before treatment and at days 3, 5 and 7 of treatment from at least one treatment period. The safety population consisted of all patients who were randomized and who received any dose of study treatment. The sample size calculation was based on an all-comers, placebo-controlled regulatory study of sapropterin with an observed mean decrease in blood Phe of 99 μmol/L and standard deviation of 220 μmol/L, and assumed a true mean decrease in blood Phe of 300 μmol/L with 80% power utilizing a 2-sided α of 0.05.
Response to PTC923 was evaluated by measuring the mean change from baseline in blood Phe (calculated as the mean of measurements at days 3, 5 and 7 of each treatment period). Day 1 pre-dose blood Phe concentrations for each treatment period served as the individual patient specific baseline for that period.
The change from baseline in blood Phe of each treatment period was modelled using a linear mixed model for repeated measures (MMRM). The efficacy model included fixed effects for baseline for each treatment period, treatment group, sequence, period, and a random subject effect within each sequence, with a first order autoregressive AR (1) covariance structure. No unplanned covariates were included.
Pairwise comparisons in changes from baseline in Phe were performed between each PTC923 treatment and sapropterin treatment by calculating the least squares means with Dunnet's method of adjustment for multiple comparisons. The estimated change in blood Phe levels, their standard errors (SE) and associated p-values were calculated for each pairwise comparison. Dunnet's method of adjustment was used to account for the multiple comparisons of the test groups against the control group. This adjustment ensured that the overall Type I error rate under the null hypothesis was maintained despite multiple test groups being compared to the single control group.
The overall mean changes in blood Phe for each treatment were calculated and the standard deviations (SD) were determined.
A prespecified sensitivity analysis excluded treatment periods where baseline Phe was <300 μmol/L and a responder analysis looked at patients with baselines ≥300 μmol/L who responded to sapropterin and/or to PTC923 treatment by ≥20% reduction.

[2] = All subjects (N = 24), 20 mg/kg/day oral
[3] = All subjects (N = 24), 60 mg/kg/day oral
[4] = Subjects with classical PKU (N = 11), 20 mg/kg/day oral
[5] = Subjects with classical PKU (N = 11), 60 mg/kg/day oral
[6] = patients on PTC923 60mg/kg with at least 30% reduction in Phe

In the case of `C[C@H](O)C(=O)C1=Nc2c(nc(N)[nH]c2=O)NC1` [sepiapterin, Sepiapterin], the “Patients reporting any adverse event” value ([1]; 20 mg/kg) was 25%, the “Patients reporting severe AE” value ([1]; 20 mg/kg) was 4% and the “Patients reporting treatment-related AE” value ([1]; 20 mg/kg) was 0%. For the same compound, the “Headache (all-cause AE)” value ([1]; 20 mg/kg) was 4%, the “Patients reporting any adverse event” value ([1]; 60 mg/kg) was 29% and the “Patients reporting severe AE” value ([1]; 60 mg/kg) was 0%. For the same compound, the “Patients reporting treatment-related AE” value ([1]; 60 mg/kg) was 13%, the “Headache (all-cause AE)” value ([1]; 60 mg/kg) was 17% and the “Proportion of patients achieving blood Phe <360 μmol/L” value (“Proportion” below) (blood Phe; 20 mg/kg) was 46%. The “Proportion” value (blood Phe; 60 mg/kg) was 50%, the “LSM difference in blood Phe change vs. sapropterin dihydrochloride” value (blood Phe; 11 patients with classical PKU, PTC923 60 mg/kg) was -148.0 µmol/L and the “Mean (SD) blood Phe, At baseline” value (blood Phe; All subjects (N = 24), 20 mg/kg period) was 694.2 (396.0) μmol/L. For the same compound, the “Least squares mean (SE) change from baseline in blood Phe” value (from here on “Least squares mean (SE) change”) (blood Phe; [2]) was −146.9 (41.8) μmol/L, the “Mean (SD) blood Phe, Change” value (blood Phe; [2]) was −143.7 (224.8) μmol/L and the “Mean (SD) blood Phe, On treatment” value (blood Phe; [2]) was 550.4 (433.7) μmol/L. For the same compound, the “Mean (SD) blood Phe, At baseline” value (blood Phe; All subjects (N = 24), 60 mg/kg period) was 727.8 (388.2) μmol/L, the “Least squares mean (SE) change” value (blood Phe; [3]) was −206.4 (41.8) μmol/L and the “Mean (SD) blood Phe, Change” value (blood Phe; [3]) was −210.1 (235.8) μmol/L. For the same compound, the “Mean (SD) blood Phe, On treatment” value (blood Phe; [3]) was 517.7 (411.7) μmol/L, the “Least squares mean change from baseline in blood Phe to first Phe measurement (Day 3)” value (blood Phe; Day 3, 20 mg/kg) was -167.5 µmol/L and the “Least squares mean change from baseline in blood Phe to first Phe measurement (Day 3)” value (blood Phe; Day 3, 60 mg/kg) was -206.6 µmol/L. For the same compound, the “LSM difference in blood Phe change vs. sapropterin dihydrochloride” value (blood Phe; Day 3, PTC923 20 mg/kg, underlying changes in μmol/L) was −95.2, the “LSM difference in blood Phe change vs. sapropterin dihydrochloride” value (blood Phe; Day 3, PTC923 60 mg/kg, underlying changes in μmol/L) was −131.3 and the “Effect on blood Phe compared with sapropterin dihydrochloride 20 mg/kg (in words)” value (blood Phe; PTC923 20 mg/kg) was “numerically larger”. For the same compound, the “Reducing blood Phe compared with sapropterin dihydrochloride 20 mg/kg (in words)” value (blood Phe; PTC923 60 mg/kg, p=0.0098) was “significantly more effective”, the “Mean absolute reduction in plasma phenylalanine (FIG. 1)” value (blood Phe; PTC923 (60 mg/kg/day)) was “over 200 micromole per liter” and the “Mean (SD) blood Phe, At baseline” value (blood Phe; Subjects with classical PKU (N = 11), 20 mg/kg period) was 944.6 (354.6) μmol/L. For the same compound, the “Mean (SD) blood Phe, Change” value (blood Phe; [4]) was −75.5 (201.8) μmol/L, the “Least squares mean (SE) change” value (blood Phe; Subjects with classical PKU (N = 11), 20 mg/kg/day oral, listed as PTC923, 20 mg/kg/day) was −71.5 μmol/L and −71.5 (61.8) μmol/L and the “Mean (SD) blood Phe, On treatment” value (blood Phe; [4]) was 869.1 (424.1) μmol/L. For the same compound, the “Mean (SD) blood Phe, At baseline” value (blood Phe; Subjects with classical PKU (N = 11), 60 mg/kg period) was 947.2 (363.0) μmol/L, the “Mean (SD) blood Phe, Change” value (blood Phe; [5]) was −146.0 (187.7) μmol/L and the “Least squares mean (SE) change” value (blood Phe; Subjects with classical PKU (N = 11), 60 mg/kg/day oral, listed as PTC923, 60 mg/kg/day) was −150.8 μmol/L and −150.8 (63.1) μmol/L. For the same compound, the “Mean (SD) blood Phe, On treatment” value (blood Phe; [5]) was 801.2 (396.5) μmol/L, the “Classical PKU subjects responding with a decrease in phenylalanine levels of at least 20%” value (blood Phe; classical PKU subjects) was “about 45%” and the “Number of patients showing blood Phe reduction of ≥20%, higher than with sapropterin” value (blood Phe; cofactor responder analysis) was 50%. The “Number of subjects normalized (day 7 blood phenylalanine less than 120 micromole per liter) compared to sapropterin dihydrochloride” value (blood Phe; day 7) was 3-4 times, the “Least squares mean change from baseline in blood Phe” value (blood Phe; group of 12 responders (Phe reduction ≥20%, baseline ≥300 μmol/L), 20 mg/kg) was -234.8 µmol/L and the “Least squares mean change from baseline in blood Phe” value (blood Phe; group of 12 responders (Phe reduction ≥20%, baseline ≥300 μmol/L), 60 mg/kg) was -322.2 µmol/L. The “LSM difference in blood Phe change vs. sapropterin dihydrochloride” value (blood Phe; group of 12 responders, PTC923 60 mg/kg) was -182.5 µmol/L, the “Subject-reported effects (in words)” value (blood Phe; human, in vivo) was “improvement in sleep quality and better focus” and the “Times more likely to reach normalized blood phenylalanine (less than 120 micromole per liter) compared to sapropterin dihydrochloride” value (blood Phe; human, in vivo) was 13.45 times. The “Non-classical subjects normalized (blood phenylalanine less than 120 micromole per liter)” value (blood Phe; non-classical subjects) was 46%, the “Proportion” value (blood Phe; on either dose of PTC923) was 54% and the “More subjects responded than to sapropterin dihydrochloride” value (blood Phe; overall responders) was 60%. The “Absolute Phe reduction from baseline” value (blood Phe; [6]) was -485.3 µmol/L, the “Absolute mean percentage change in Phe from baseline” value (blood Phe; [6]) was -72.5% and the “Least squares mean change from baseline in blood Phe” value (blood Phe; sensitivity analysis population (excluding periods with baseline Phe <300 μmol/L), 20 mg/kg) was -167.8 µmol/L. The “Least squares mean change from baseline in blood Phe” value (blood Phe; sensitivity analysis population (excluding periods with baseline Phe <300 μmol/L), 60 mg/kg) was -226.9 µmol/L and the “LSM difference in blood Phe change vs. sapropterin dihydrochloride” value (blood Phe; sensitivity analysis population, PTC923 60 mg/kg) was -121.4 µmol/L.
